Test systems include A549 NSCLC; ACHN renal; DU-145 prostate; HCC-2998 colon; MALME-3M melanoma; MDA-MB-435; MOLT-4 leukemia; OVCAR-4 ovarian; RPMI-8226 leukemia; SF-539 CNS.
Experiment in all cases: growth of human tumour cells (NCI), 48 h

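Method: 48-hour compound exposure of cells in 96-well plates, five concentrations, linear interpolation of endpoints. Abbreviation: GI50, concentration required for 50% inhibition of growth. TGI denotes the concentration required for complete inhibition of growth.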 Bounds are passed on as bounds.

For `Clc1ccc(Cc2nc3cc(Cl)c(Cl)cc3n2CC2CCCN3CCCCC23)cc1` (stereo not given), the TGI with A549 NSCLC was found to be 26.2 µM; with ACHN renal, 22.2 µM; in the test on DU-145 prostate, 26.2 µM; in the test on HCC-2998 colon it was 14.6 µM; with MALME-3M melanoma, 20.9 µM; in the test on MDA-MB-435 it was 40.4 µM. In addition, the TGI in the test with MOLT-4 leukemia was more than 100 µM; with OVCAR-4 ovarian, 79.4 µM; in the test with RPMI-8226 leukemia it was more than 100 µM; in the test on SF-539 CNS, 22.3 µM.

For the compound `N#CC1=C(N)OC2=C(CCCc3ccc([N+](=O)[O-])cc32)C1c1ccc(Cl)cc1` (stereo not given), the TGI in the test with A549 NSCLC is more than 100 µM; with ACHN renal it was 46.5 µM; in the test with DU-145 prostate it was 63.2 µM; in the test on HCC-2998 colon it was 52.3 µM; with MALME-3M melanoma, 31.4 µM; in the test on MDA-MB-435 it was 65.5 µM. Besides, the TGI stood at 93.1 µM with MOLT-4 leukemia, 28.3 µM with OVCAR-4 ovarian, 32 µM in the test on RPMI-8226 leukemia and 29.5 µM with SF-539 CNS.

`CCOC(=O)c1cccc(N=NNc2cccc(C(=O)OCC)c2)c1`: the TGI with A549 NSCLC, in the test with ACHN renal, in the test on DU-145 prostate, in the test with HCC-2998 colon, in the test with MALME-3M melanoma and with MDA-MB-435 was more than 100 µM each time. For the same compound, the TGI was more than 100 µM in the test on MOLT-4 leukemia, 63 µM with OVCAR-4 ovarian, more than 100 µM in the test with RPMI-8226 leukemia and 36.6 µM in the test with SF-539 CNS.

On to `C=CCCCCCCCCCOC1C=CC(O)C(CO)O1` (stereo not given), for which the TGI is more than 100 µM in the test on A549 NSCLC; more than 100 µM in the test on ACHN renal; more than 100 µM in the test with DU-145 prostate; more than 100 µM with HCC-2998 colon; 73.3 µM with MALME-3M melanoma; more than 100 µM in the test with MDA-MB-435. In addition, the TGI in the test on MOLT-4 leukemia was 86.7 µM; in the test on OVCAR-4 ovarian, more than 100 µM; with RPMI-8226 leukemia, 50.4 µM; in the test with SF-539 CNS it was more than 100 µM.

In the case of `COc1ccc(/C=N/n2c(-c3ccccc3)n[nH]c2=O)c(OC)c1`, the TGI in the test on A549 NSCLC is more than 100 µM; with ACHN renal, more than 75.5 µM; in the test with DU-145 prostate, more than 100 µM; with HCC-2998 colon, more than 100 µM; in the test on MALME-3M melanoma, more than 100 µM; in the test on MDA-MB-435, more than 100 µM. For the same compound, the TGI in the test on MOLT-4 leukemia is more than 100 µM; in the test on OVCAR-4 ovarian, more than 86.6 µM; in the test on RPMI-8226 leukemia, more than 100 µM; with SF-539 CNS, more than 84.9 µM.

On to `Clc1ccc(Cc2nc3cc4ccccc4cc3[nH]2)cc1Cl`, for which the TGI was determined as 68.9 µM with A549 NSCLC; 81.2 µM in the test with ACHN renal; 45.7 µM in the test on DU-145 prostate; 40.4 µM in the test with HCC-2998 colon; 39.4 µM with MALME-3M melanoma; 49.3 µM in the test on MDA-MB-435. Also, the TGI with MOLT-4 leukemia was 4.03 µM; in the test on OVCAR-4 ovarian it was 36.8 µM; in the test with RPMI-8226 leukemia it was more than 100 µM; in the test with SF-539 CNS it was 41.3 µM.

As to `COc1ccc(Cl)cc1NC(=O)O/N=C(\Cl)C(C)C`, the TGI with A549 NSCLC amounted to 37.9 µM; with ACHN renal it was 4.21 µM; in the test on DU-145 prostate, 37.4 µM; with HCC-2998 colon, 35.7 µM; with MALME-3M melanoma it was 5.28 µM; in the test on MDA-MB-435, 47.6 µM. Also, the TGI in the test on MOLT-4 leukemia was 6.11 µM; in the test with OVCAR-4 ovarian, 34.1 µM; in the test on RPMI-8226 leukemia, 4.61 µM; with SF-539 CNS, 29.4 µM.

For the compound `O=c1[nH]nc(-c2cccc([N+](=O)[O-])c2)[nH]1`, the TGI in the test with A549 NSCLC, with ACHN renal, in the test with DU-145 prostate, in the test with HCC-2998 colon, in the test on MALME-3M melanoma and in the test with MDA-MB-435 was more than 100 µM throughout. The TGI with MOLT-4 leukemia, in the test on OVCAR-4 ovarian, in the test with RPMI-8226 leukemia and in the test on SF-539 CNS was more than 100 µM in each case.

As for `O=C(NCC(O)COc1ccccc1)c1ccccc1O` (stereo not given), the TGI in the test on A549 NSCLC, in the test with ACHN renal, in the test on DU-145 prostate, in the test on HCC-2998 colon, in the test on MALME-3M melanoma and with MDA-MB-435 was more than 100 µM in each case. Besides, the TGI in the test on MOLT-4 leukemia was 47.2 µM; with OVCAR-4 ovarian, more than 100 µM; in the test with RPMI-8226 leukemia, more than 100 µM; in the test on SF-539 CNS, more than 100 µM.

`O=C1OCOC2(CCCC2)C1c1ccccc1` (stereo not given): the TGI in the test on A549 NSCLC, in the test with ACHN renal, in the test with DU-145 prostate, in the test on HCC-2998 colon, with MALME-3M melanoma and in the test on MDA-MB-435 was more than 100 µM in each case. Also, the TGI with MOLT-4 leukemia, with OVCAR-4 ovarian, in the test on RPMI-8226 leukemia and in the test with SF-539 CNS was more than 100 µM throughout.

Take `O=C(c1ccccc1)c1nn(-c2cccc(Cl)c2)c2nc3nc(-c4ccccc4)cc(=O)n3nc12`: the GI50 with A549 NSCLC was more than 25 µM; in the test on ACHN renal, more than 25 µM; with DU-145 prostate, more than 25 µM; in the test with HCC-2998 colon, 22.6 µM; in the test on MALME-3M melanoma it was more than 25 µM; with MDA-MB-435, more than 25 µM. Further, the GI50 in the test with MOLT-4 leukemia, with OVCAR-4 ovarian, in the test with RPMI-8226 leukemia and in the test on SF-539 CNS was more than 25 µM each time. Moreover, the TGI in the test on A549 NSCLC, in the test with ACHN renal, with DU-145 prostate, with HCC-2998 colon, in the test with MALME-3M melanoma and with MDA-MB-435 was more than 25 µM each time. Moreover, the TGI with MOLT-4 leukemia, in the test with OVCAR-4 ovarian, in the test on RPMI-8226 leukemia and with SF-539 CNS was more than 25 µM throughout.

(Values after PubChem BioAssay (NCI).)
